Measurements reported in ChEMBL document CHEMBL1149774, “Synthesis of N-(5,7-diamino-3-phenyl-quinoxalin-2-yl)-3,4,5-substituted anilines and N-[4[(5,7-diamino-3-phenylquinoxalin-2-yl)amino]benzoyl]-l-glutamic acid diethyl ester: evaluation of in vitro anti-cancer and anti-folate activities” (Eur J Med Chem, 2008).

What was measured:
HOP-92 = assay: Growth inhibition of human HOP92 cells after 48 hrs by SRB staining method; type: functional; conditions: HOP-92, 48 h
NCI-H322M = assay: Growth inhibition of human NCI-H322M cells after 48 hrs by SRB staining method; type: functional
COLO 205 = assay: Growth inhibition of human COLO205 cells after 48 hrs by SRB staining method; type: functional; conditions: COLO 205, 48 h; for TGI: read-out: pTGI (converted)
HCT-116 = assay: Growth inhibition of human HCT116 cells after 48 hrs by SRB staining method; type: functional; conditions: HCT-116, 48 h; for TGI: read-out: pTGI (converted)
SF-539 = assay: Growth inhibition of human SF539 cells after 48 hrs by SRB staining method; type: functional; conditions: SF-539, 48 h
U-251 = assay: Growth inhibition of human U251 cells after 48 hrs by SRB staining method; type: functional; conditions: U-251, 48 h; for TGI: read-out: pTGI (converted)
SK-MEL-28 = assay: Growth inhibition of human SK-MEL-28 cells after 48 hrs by SRB staining method; type: functional; conditions: SK-MEL-28, 48 h; for CC50: read-out: pLC50 (the source's name) (converted); for TGI: read-out: pTGI (converted)
OVCAR-3 = assay: Growth inhibition of human OVCAR-3 cells after 48 hrs by SRB staining method; type: functional; conditions: OVCAR-3, 48 h; for TGI: read-out: pTGI (converted)
OVCAR-5 = assay: Growth inhibition of human OVCAR5 cells after 48 hrs by SRB staining method; type: functional; conditions: OVCAR-5, 48 h; for TGI: read-out: pTGI (converted)
OVCAR-8 = assay: Growth inhibition of human OVCAR8 cells after 48 hrs by SRB staining method; type: functional; conditions: OVCAR-8, 48 h; for CC50: read-out: pLC50 (the source's name) (converted); for TGI: read-out: pTGI (converted)
CAKI-1 = assay: Growth inhibition of human CAKI1 cells after 48 hrs by SRB staining method; type: functional; conditions: CAKI-1, 48 h; for CC50: read-out: pLC50 (the source's name) (converted); for TGI: read-out: pTGI (converted)
TK-10 = assay: Growth inhibition of human TK10 cells after 48 hrs by SRB staining method; type: functional; conditions: TK-10, 48 h; for CC50: read-out: pLC50 (the source's name) (converted); for TGI: read-out: pTGI (converted)
MDA-MB-231 = assay: Growth inhibition of human MDA-MB-231 cells after 48 hrs by SRB staining method; type: functional; conditions: MDA-MB-231, 48 h; for CC50: read-out: pLC50 (the source's name) (converted); for TGI: read-out: pTGI (converted)
BT-549 = assay: Growth inhibition of human BT549 cells after 48 hrs by SRB staining method; type: functional; conditions: BT-549, 48 h; for CC50: read-out: pLC50 (the source's name) (converted); for TGI: read-out: pTGI (converted)
Dihydrofolate reductase = biological target: T1, Dihydrofolate reductase (Homo sapiens, UniProt P00374); assay: Inhibition of human dihydrofolate reductase
T1 sequence (P00374 whole entry): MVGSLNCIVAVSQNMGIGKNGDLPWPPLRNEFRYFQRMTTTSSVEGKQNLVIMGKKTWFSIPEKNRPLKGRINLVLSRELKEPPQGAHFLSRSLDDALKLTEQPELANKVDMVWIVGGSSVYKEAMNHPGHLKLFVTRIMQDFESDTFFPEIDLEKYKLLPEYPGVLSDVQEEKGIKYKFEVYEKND

MDA-N = assay: Growth inhibition of human MDA-N cells after 48 hrs by SRB staining method; type: functional; conditions: for CC50: read-out: pLC50 (the source's name) (converted); for TGI: read-out: pTGI (converted)
A549 = assay: Growth inhibition of human A549 cells after 48 hrs by SRB staining method; type: functional; conditions: A549, 48 h; for CC50: read-out: pLC50 (the source's name) (converted); for TGI: read-out: pTGI (converted)
SW-620 = assay: Growth inhibition of human SW620 cells after 48 hrs by SRB staining method; type: functional; conditions: SW-620, 48 h; for CC50: read-out: pLC50 (the source's name) (converted); for TGI: read-out: pTGI (converted)
SF-268 = assay: Growth inhibition of human SF268 cells after 48 hrs by SRB staining method; type: functional; conditions: SF-268, 48 h; for CC50: read-out: pLC50 (the source's name) (converted); for TGI: read-out: pTGI (converted)
CCRF-CEM = assay: Growth inhibition of human CCRF-CEM cells after 48 hrs by SRB staining method; type: functional; conditions: for CC50: read-out: pLC50 (the source's name) (converted); for TGI: read-out: pTGI (converted)
K562 = assay: Growth inhibition of human K562 cells after 48 hrs by SRB staining method; type: functional; conditions: K562, 48 h; for CC50: read-out: pLC50 (the source's name) (converted); for TGI: read-out: pTGI (converted)
RPMI-8226 = assay: Growth inhibition of human RPMI8226 cells after 48 hrs by SRB staining method; type: functional; conditions: RPMI-8226, 48 h; for CC50: read-out: pLC50 (the source's name) (converted); for TGI: read-out: pTGI (converted)
SR = assay: Growth inhibition of human SR cells after 48 hrs by SRB staining method; type: functional; conditions: for CC50: read-out: pLC50 (the source's name) (converted); for TGI: read-out: pTGI (converted)
MOLT-4 = assay: Growth inhibition of human MOLT4 cells after 48 hrs by SRB staining method; type: functional; conditions: MOLT-4, 48 h
EKVX = assay: Growth inhibition of human EKVX cells after 48 hrs by SRB staining method; type: functional; conditions: for CC50: read-out: pLC50 (the source's name) (converted); for TGI: read-out: pTGI (converted)
Thymidylate synthase = Thymidylate synthase (Homo sapiens, UniProt P04818)
Description: Inhibition of human thymidylate synthase

HCC 2998 = assay: Growth inhibition of human HCC2998 cells after 48 hrs by SRB staining method; type: functional; conditions: HCC 2998, 48 h
SNB-75 = assay: Growth inhibition of human SNB75 cells after 48 hrs by SRB staining method; type: functional; conditions: SNB-75, 48 h

Chain of Thymidylate synthase (P04818 whole entry): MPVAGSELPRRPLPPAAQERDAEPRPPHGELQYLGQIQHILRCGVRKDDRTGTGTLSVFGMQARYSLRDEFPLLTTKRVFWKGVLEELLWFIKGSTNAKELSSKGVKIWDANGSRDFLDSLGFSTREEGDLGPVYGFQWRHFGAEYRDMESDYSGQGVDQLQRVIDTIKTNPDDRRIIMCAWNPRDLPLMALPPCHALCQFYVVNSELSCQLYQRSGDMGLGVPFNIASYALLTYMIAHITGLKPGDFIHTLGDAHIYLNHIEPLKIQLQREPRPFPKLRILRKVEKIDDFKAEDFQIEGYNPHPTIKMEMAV

COc1cc(Nc2nc3cc(N)cc(N)c3nc2-c2ccccc2)cc(OC)c1OC
GI50 (HOP-92): 2.75 µM | LC50 (HOP-92): 91.2 µM | TGI (HOP-92; read-out: pTGI (converted)): 20.9 µM | LC50 (NCI-H322M): > 100 µM | GI50 (COLO 205): 14.1 µM | LC50 (COLO 205): 52.5 µM | TGI (COLO 205): 26.9 µM | GI50 (HCT-116): 15.5 µM | LC50 (HCT-116): 75.9 µM | TGI (HCT-116): 33.9 µM | GI50 (SF-539): 14.8 µM | LC50 (SF-539): 56.2 µM | TGI (SF-539; read-out: pTGI (converted)): 28.8 µM | GI50 (U-251): 24.5 µM | LC50 (50% lethal concentration) (U-251): > 100 µM | TGI (U-251): > 100 µM | GI50 (SK-MEL-28): 1.45 µM | CC50 (SK-MEL-28): 63.1 µM | TGI (SK-MEL-28): 20.9 µM | GI50 (OVCAR-3): 14.1 µM | LC50 (OVCAR-3): 97.7 µM | TGI (OVCAR-3): 37.2 µM | GI50 (OVCAR-5): 21.4 µM | LC50 (OVCAR-5): > 100 µM | TGI (OVCAR-5): 46.8 µM | GI50 (OVCAR-8): 15.5 µM | CC50 (OVCAR-8): 79.4 µM | TGI (OVCAR-8): 34.7 µM | GI50 (CAKI-1): 15.5 µM | CC50 (CAKI-1): > 100 µM | TGI (CAKI-1): 49 µM | GI50 (TK-10): 24 µM | CC50 (TK-10): > 100 µM | TGI (TK-10): 66.1 µM | GI50 (MDA-MB-231): 11.2 µM | CC50 (MDA-MB-231): 77.6 µM | TGI (MDA-MB-231): 29.5 µM | GI50 (BT-549): 17 µM | CC50 (BT-549): 67.6 µM | TGI (BT-549): 17 µM | Ki (Dihydrofolate reductase): 0.1 µM | GI50 (MDA-N): 10.5 µM | CC50 (MDA-N): 93.3 µM | TGI (MDA-N): 31.6 µM | GI50 (A549): 29.5 µM | CC50 (A549): > 100 µM | TGI (A549): > 100 µM | GI50 (SW-620): 24 µM | CC50 (SW-620): > 100 µM | TGI (SW-620): > 100 µM | GI50 (SF-268): 18.2 µM | CC50 (SF-268): > 100 µM | TGI (SF-268): 60.3 µM | GI50 (CCRF-CEM): 4.37 µM | CC50 (CCRF-CEM): > 100 µM | TGI (CCRF-CEM): 41.7 µM | GI50 (K562): 12.6 µM | CC50 (K562): > 100 µM | TGI (K562): 39.8 µM | GI50 (RPMI-8226): 12.3 µM | CC50 (RPMI-8226): 85.1 µM | TGI (RPMI-8226): 32.4 µM | GI50 (SR): 3.31 µM | CC50 (SR): 72.4 µM | TGI (SR): 15.8 µM | GI50 (MOLT-4): 2.57 µM | CC50 (MOLT-4; read-out: pLC50 (the source's name) (converted)): 56.2 µM | TGI (MOLT-4; read-out: pTGI (converted)): 18.2 µM | GI50 (EKVX): 17.8 µM | CC50 (EKVX): > 100 µM | TGI (EKVX): 47.9 µM | Ki (Thymidylate synthase): 51 µM

COc1cc(Nc2nc3cc(N)cc(N)c3nc2-c2ccccc2)cc(OC)c1
LC50 (HOP-92): > 100 µM | GI50 (NCI-H322M): 13.8 µM | LC50 (NCI-H322M): > 100 µM | TGI (NCI-H322M; read-out: pTGI (converted)): 58.9 µM | GI50 (COLO 205): 14.5 µM | LC50 (COLO 205): 67.6 µM | TGI (COLO 205): 31.6 µM | GI50 (HCC 2998): 24.5 µM | LC50 (HCC 2998): > 100 µM | TGI (HCC 2998; read-out: pTGI (converted)): > 100 µM | GI50 (HCT-116): 17 µM | LC50 (HCT-116): > 100 µM | TGI (HCT-116): 53.7 µM | GI50 (SNB-75): 3.72 µM | LC50 (SNB-75): > 100 µM | TGI (SNB-75; read-out: pTGI (converted)): 44.7 µM | GI50 (U-251): 22.9 µM | LC50 (50% lethal concentration) (U-251): > 100 µM | TGI (U-251): > 100 µM | GI50 (SK-MEL-28): 14.8 µM | CC50 (SK-MEL-28): > 100 µM | TGI (SK-MEL-28): 89.1 µM | GI50 (OVCAR-3): 3.89 µM | LC50 (OVCAR-3): 100 µM | TGI (OVCAR-3): 20 µM | GI50 (OVCAR-5): 26.3 µM | LC50 (OVCAR-5): > 100 µM | TGI (OVCAR-5): > 100 µM | GI50 (OVCAR-8): 6.17 µM | CC50 (OVCAR-8): > 100 µM | TGI (OVCAR-8): 46.8 µM | GI50 (CAKI-1): 14.8 µM | CC50 (CAKI-1): > 100 µM | TGI (CAKI-1): 72.4 µM | GI50 (TK-10): 13.2 µM | CC50 (TK-10): > 100 µM | TGI (TK-10): 42.7 µM | GI50 (MDA-MB-231): 6.46 µM | CC50 (MDA-MB-231): > 100 µM | TGI (MDA-MB-231): 34.7 µM | GI50 (BT-549): 4.68 µM | CC50 (BT-549): > 100 µM | TGI (BT-549): 31.6 µM | Ki (Dihydrofolate reductase): 0.6 µM | GI50 (MDA-N): 12.9 µM | CC50 (MDA-N): 100 µM | TGI (MDA-N): 36.3 µM | GI50 (A549): 20 µM | CC50 (A549): > 100 µM | TGI (A549): > 100 µM | GI50 (SW-620): 26.9 µM | CC50 (SW-620): > 100 µM | TGI (SW-620): > 100 µM | GI50 (SF-268): 5.62 µM | CC50 (SF-268): > 100 µM | TGI (SF-268): 56.2 µM | GI50 (CCRF-CEM): < 0.01 µM | CC50 (CCRF-CEM): 0.977 µM | TGI (CCRF-CEM): 0.166 µM | GI50 (K562): 27.5 µM | CC50 (K562): > 100 µM | TGI (K562): > 100 µM | GI50 (RPMI-8226): 1.26 µM | CC50 (RPMI-8226): 32.4 µM | TGI (RPMI-8226): 10.5 µM | GI50 (SR): 5.62 µM | CC50 (SR): > 100 µM | TGI (SR): > 100 µM | GI50 (EKVX): 13.2 µM | CC50 (EKVX): > 100 µM | TGI (EKVX): 64.6 µM | Ki (Thymidylate synthase): 25 µM
